Laboratory results as given in US9364537B2, “Transition metal porphyrin complexes and methods of treatment using same” (UNIVERSITY OF DAYTON, priority 2014, dated 2016).

Assays:
[1] = test system: Pseudomonas aeruginosa planktonic cells; assay: killing of planktonic cells in the absence of light, viable plate counts; type: cell-based; conditions: 37° C.
Experimental: ZnPFPTMP was added to cell suspensions at the concentrations shown in FIG. 5 (0 to 100 μM) and incubated at 37° C. in the absence of light. […]

[2] = test system: circular plasmid DNA (pUC18); assay: photocleavage of plasmid DNA in the presence of oxygen, gel electrophoresis; type: biochemical; conditions: 50:1 base pair to complex ratio
Experimental: To appreciate the significance of the increased absorption of ZnPFPTMP in the PDT window, comparative photocleavage studies of plasmid DNA under normal conditions (i.e., in the presence of oxygen) were conducted for ZnPFPTMP and its free-base porphyrin. […] In FIG. 3, gel electrophoresis of circular plasmid DNA (pUC18) in the absence (lane 1) and presence (lanes 2-10) of unmetallated porphyrin (A) and ZnPFPTMP (B) at a 50:1 base pair to complex ratio are shown. Samples were irradiated with a 300 W mercury arc lamp equipped with a long pass filter, cutting off wavelengths below 550 nm, and were taken at 2 minute intervals.
ZnPFPTMP is very reactive at such low energy wavelengths of light.

calf thymus CT-DNA = assay: DNA titration by absorption spectra; type: binding; conditions: pH 7.2 buffer, ionic strength 0.1 M
Experimental: A sample of ZnPFPTMP from Part C was tested by various methods and techniques to determine how this compound may be utilized. In one test ZnPFPTMP was titrated into a DNA sample to determine ZnPFPTMP's affinity for binding to DNA. This test was conducted by measuring the absorption spectra of pH 7.2 buffer solutions (ionic strength=0.1 M) of ZnPFPTMP in the presence of increasing amounts of calf thymus CT-DNA.

[3] = test system: Pseudomonas aeruginosa biofilm associated cells; assay: effect on biofilms in the dark; type: cell-based
[4] = test system: circular plasmid DNA (pUC18); assay: photocleavage of plasmid DNA in the absence of oxygen, gel electrophoresis; type: biochemical; conditions: 10:1 base pair to complex ratio, wavelengths above 420 nm
Experimental: Referring now to FIG. 4, photocleavage studies based on a 10 to 1 base pairs to ZnPFPTMP was irradiated with a 420 nm filter and samples were taken at 10 minute intervals. In FIG. 3, gel electrophoresis of circular plasmid DNA (pUC18) in the absence (lane 1) and presence (lanes 2-10) of ZnPFPTMP at a 10:1 base pair to complex ratio is shown. Samples were irradiated with a 300 W mercury arc lamp equipped with a long pass filter, cutting off wavelengths below 420 nm in the absence of oxygen, and were taken at 10 minute intervals. Accordingly, ZnPFPTMP can be effective under hypoxic conditions.

Staphylococcus aureus = assay: killing of bacteria in the absence of light, plated to determine viability; type: cell-based
Description: Additionally, the ability of ZnPFPTMP to affect killing of bacteria in the absence of light was further tested against the Gram-positive pathogenic bacterium Staphylococcus aureus. This bacterium was chose to evidence the ability of the porphyrins of general formula (I) to treat/kill methicillin-resistant Staphylococcus aureus (MRSA) without exposing the scientists to MRSA directly. Moreover, it is believed that the mechanism used by the porphyrins of general formula (I) is unlikely to involve the methicillin resistance mechanism. S. aureus cells grown in LB medium were washed and re-suspended on 0.2% peptone and exposed to either 1.5 μM or 3.0 μM Zeke in sterile water. Cell suspensions were sampled every 30 minutes for 3 hours and plated to determine viability. […] At 1.5 μM Zeke's complete elimination of viable cells of S. aureus took only two hours.

Q: Which “killing at two hours” value ([1]; 2 hours) does the source give for “meso-5,10,15-tris(N-methyl-4-pyridyl)-20-(pentafluorophenyl)porphyrinatozinc(II), tris-p-toluene sulfonate [ZnPFPTMP]” here?
A: Its value is “substantial killing”.

Q: What about the “MLC (minimum lethal concentration)” value ([1]; 7 hours, no survivors) of the same substance?
A: The value was 25 µM.

Q: What about the “band intensity compared to free-base porphyrin” value ([2]; after 2 minutes versus free-base porphyrin after 20 minutes, above 550 nm) of the same substance?
A: Its value is “more intense bands”.

Q: What about the “photonicking of plasmid DNA” value ([2]; after two minutes, wavelengths above 550 nm, oxygen present) of the same substance?
A: The value was “effective compete photonicking”.

Q: What about the “binding constants to DNA” value (calf thymus CT-DNA) of the same substance?
A: Its value is “greater than 10^6”.

Q: And the biofilm formation ([3]; added to cell suspensions incubated in the dark)?
A: Its biofilm formation is “Biofilms were prevented”.

Q: What about the “log reduction in preformed biofilms” value ([3]; preformed biofilms exposed in the dark (data not shown)) of the same substance?
A: The value was 2.7 log.

Q: What about the “photonicking of DNA in the absence of oxygen” value [4] of the same substance?
A: The value was “effective at photonicking DNA”.

Q: And the “time to complete elimination of viable cells” value (Staphylococcus aureus; 1.5 μM)?
A: The value was “two”.

Q: And the “log reduction in viable cells” value (Staphylococcus aureus; 3.0 μM, after 30 min)?
A: The value was 5.5 log.

Q: And the viable cells remaining (Staphylococcus aureus; 3.0 μM, after 60 min)?
A: Its viable cells remaining is “no viable cells remained”.
